From PubChem BioAssay (NCI) come the findings set out here.

Molecules are shown by their SMILES. Where “and” joins values, the source holds several entries; their conditions need not be identical. Equal values may be shown once.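 1) Cells in 96-well plates. 2) Compound, 48 h, 5 concentrations. 3) Linear interpolation between surrounding doses. 4) Unreached endpoint = highest concentration. GI50 marks 50% less growth. TGI: total growth inhibition.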 Bounds are passed on as bounds.

Test systems include EKVX NSCLC; K-562 leukemia; SN12C renal; OVCAR-5 ovarian; RXF 393 renal; SK-MEL-28 melanoma; NCI-H522 lung; 786-0 renal; NCI-H23 lung; NCI/ADR-RES ovarian.
What all share (test): growth of human tumour cells (NCI), 48 h

`O=C(Nc1ccc(F)cc1)Nc1ccc(Br)c(C(F)(F)F)c1`: the GI50 with EKVX NSCLC was 2.4 µM; with K-562 leukemia, 2.13 µM; in the test on SN12C renal, 2.91 µM; in the test on OVCAR-5 ovarian it was 2.55 µM; in the test on RXF 393 renal, 2.66 µM; with SK-MEL-28 melanoma, 2.83 µM. Further, the GI50 is 1.56 µM in the test with NCI-H522 lung, 2.42 µM in the test on 786-0 renal, 2.04 µM in the test with NCI-H23 lung and 2.51 µM in the test on NCI/ADR-RES ovarian. Also, the TGI in the test with EKVX NSCLC is 10.6 µM; in the test with K-562 leukemia, 11.5 µM; with SN12C renal, 11.5 µM; in the test on OVCAR-5 ovarian it was 10.8 µM; in the test on RXF 393 renal, 8.28 µM; in the test on SK-MEL-28 melanoma it was 11.1 µM. The TGI in the test with NCI-H522 lung amounted to 5.87 µM; in the test on 786-0 renal, 8.17 µM; with NCI-H23 lung it was 9.5 µM; with NCI/ADR-RES ovarian it was 10.1 µM.
With `O=C(CI)Nc1ccc(O)c2ccccc12`, the GI50 in the test on EKVX NSCLC is 2.52 µM; with K-562 leukemia it was 0.328 µM; in the test on SN12C renal, 1.61 µM; with OVCAR-5 ovarian, 1.85 µM; with RXF 393 renal it was 0.742 µM; in the test on SK-MEL-28 melanoma it was 1.78 µM. The GI50 was 0.142 µM in the test with NCI-H522 lung, 1.73 µM with 786-0 renal, 1.67 µM in the test with NCI-H23 lung and 2.97 µM in the test on NCI/ADR-RES ovarian. Moreover, the TGI is 8.59 µM with EKVX NSCLC; over 100 µM with K-562 leukemia; 3.3 µM with SN12C renal; 3.55 µM in the test on OVCAR-5 ovarian; 1.97 µM with RXF 393 renal; 3.74 µM in the test on SK-MEL-28 melanoma. Moreover, the TGI turned out to be 0.297 µM in the test on NCI-H522 lung, 3.27 µM in the test on 786-0 renal, 3.69 µM in the test with NCI-H23 lung and 14.8 µM in the test with NCI/ADR-RES ovarian.
`C[n+]1c2ccccc2nc2ccccc21`: the GI50 with EKVX NSCLC was 1.69 µM; with K-562 leukemia, 1.86 µM; in the test on SN12C renal, 1.63 µM; in the test on OVCAR-5 ovarian it was 1.66 µM; in the test with RXF 393 renal it was 1.7 µM; with SK-MEL-28 melanoma, 1.59 µM. The GI50 was 1.3 µM with NCI-H522 lung, 2.31 µM with 786-0 renal, 0.67 µM in the test with NCI-H23 lung and 1.68 µM in the test with NCI/ADR-RES ovarian. The TGI in the test with EKVX NSCLC is 7.96 µM; in the test on K-562 leukemia, over 32.4 µM; in the test on SN12C renal, 3.41 µM; with OVCAR-5 ovarian, 3.56 µM; in the test on RXF 393 renal it was 4.29 µM; in the test with SK-MEL-28 melanoma it was 3.1 µM. For the same compound, the TGI in the test on NCI-H522 lung is 3.45 µM; in the test with 786-0 renal it was 8.47 µM; in the test with NCI-H23 lung it was 2.34 µM; in the test on NCI/ADR-RES ovarian, 6.91 µM.
Consider `CCC1(OC(=O)CN)C(=O)OCc2c1cc1n(c2=O)Cc2cc3ccccc3nc2-1` (configuration not stated), for which the GI50 in the test with EKVX NSCLC is 0.164 µM; with K-562 leukemia, 0.17 µM; in the test on SN12C renal, 0.00715 µM; in the test with OVCAR-5 ovarian it was 0.0728 µM; in the test on RXF 393 renal it was 0.148 µM; in the test on SK-MEL-28 melanoma it was 0.851 µM. For the same compound, the GI50 with NCI-H522 lung was 0.0362 µM; with 786-0 renal, 0.00563 µM; in the test on NCI-H23 lung, 0.0191 µM; in the test with NCI/ADR-RES ovarian it was 0.0173 µM. Also, the TGI in the test on EKVX NSCLC is 17.4 µM; in the test on K-562 leukemia, over 100 µM; in the test with SN12C renal it was 0.64 µM; in the test on OVCAR-5 ovarian, 0.6 µM and 0.533 µM; in the test on RXF 393 renal it was 0.88 µM and 0.307 µM; in the test with SK-MEL-28 melanoma, 38.7 µM. Further, the TGI with NCI-H522 lung is 0.59 µM and 0.624 µM; with 786-0 renal, 0.194 µM and 0.161 µM; with NCI-H23 lung, 0.15 µM and 0.0424 µM; in the test with NCI/ADR-RES ovarian, 0.137 µM and 0.0776 µM.
Turning to `CC(C)c1cccc(O)c(=O)c1`, the GI50 is 1.45 µg/mL in the test on EKVX NSCLC; 2.38 µg/mL in the test on K-562 leukemia; 4.26 µg/mL in the test with SN12C renal; 75 µg/mL with OVCAR-5 ovarian; 0.116 µg/mL in the test on RXF 393 renal; 0.138 µg/mL with SK-MEL-28 melanoma. Besides, the GI50 in the test on NCI-H522 lung was 5.16 µg/mL; in the test on 786-0 renal, 5.54 µg/mL; in the test on NCI-H23 lung, 35 µg/mL; in the test on NCI/ADR-RES ovarian, 4.5 µg/mL. The TGI in the test on SN12C renal was > 75 µg/mL and > 100 µM; in the test on OVCAR-5 ovarian, > 75 µg/mL and > 100 µM; in the test with NCI-H522 lung it was 28 µg/mL and > 73.1 µM; in the test on 786-0 renal it was > 75 µg/mL and > 100 µM; in the test on NCI-H23 lung, > 75 µg/mL and > 78.8 µM; in the test with NCI/ADR-RES ovarian, over 75 µg/mL.
As to `CC1(C)OC(=O)C(C#N)=C1C[n+]1ccccc1`, the TGI in the test on EKVX NSCLC, in the test on K-562 leukemia, in the test on SN12C renal, with OVCAR-5 ovarian, in the test with RXF 393 renal and with SK-MEL-28 melanoma was over 10 µM in each case. For the same compound, the TGI with NCI-H522 lung, with 786-0 renal, with NCI-H23 lung and in the test on NCI/ADR-RES ovarian was over 10 µM in each case.
As for `C=C1SC(=Nc2ccccc2Cl)N(C(=O)c2sc3ccccc3c2Cl)C12CCCCC2`, the GI50 was 3.2 µM in the test on EKVX NSCLC; 4.14 µM in the test with K-562 leukemia; 6.99 µM with SN12C renal; 35.9 µM in the test with OVCAR-5 ovarian; 15.2 µM in the test on RXF 393 renal; over 100 µM in the test on SK-MEL-28 melanoma. For the same compound, the GI50 with NCI-H522 lung is 4.23 µM; in the test with 786-0 renal it was 37.9 µM; with NCI-H23 lung it was 4.43 µM; with NCI/ADR-RES ovarian, 3.51 µM. Moreover, the TGI was over 100 µM in the test on EKVX NSCLC; over 100 µM in the test on K-562 leukemia; over 100 µM in the test with SN12C renal; over 100 µM in the test on OVCAR-5 ovarian; 88.7 µM with RXF 393 renal; over 100 µM in the test on SK-MEL-28 melanoma. The TGI with NCI-H522 lung, in the test on 786-0 renal, in the test on NCI-H23 lung and in the test with NCI/ADR-RES ovarian was over 100 µM in each case.
`CC([C@H]1CC=C2C3CCC4=C[C@@H](N(C)C)CC[C@]4(C)C3CC[C@@]21C)N(C)C` (some centres not stated): the GI50 in the test on EKVX NSCLC was 1.99 µM; in the test with K-562 leukemia it was 0.611 µM; in the test with SN12C renal, 2.54 µM; in the test on OVCAR-5 ovarian, 6.23 µM; in the test on RXF 393 renal it was 4.28 µM; with SK-MEL-28 melanoma it was 1.74 µM. The GI50 in the test with NCI-H522 lung was 7.12 µM; in the test with 786-0 renal it was 2.94 µM; in the test with NCI-H23 lung, 3.15 µM; in the test on NCI/ADR-RES ovarian, 4.25 µM. The TGI in the test on EKVX NSCLC is 18.3 µM; with K-562 leukemia, 3.05 µM; in the test with SN12C renal, 12.1 µM; in the test on OVCAR-5 ovarian, 19.5 µM; in the test with RXF 393 renal it was 17.3 µM; in the test with SK-MEL-28 melanoma it was 3.38 µM. Besides, the TGI with NCI-H522 lung was 25 µM; in the test on 786-0 renal, 7.99 µM; with NCI-H23 lung it was 14.8 µM; with NCI/ADR-RES ovarian it was 18.2 µM.
On to `C[C@H]1CNC(=O)c2cnn3ccc(nc23)N[C@H](C)c2cc(F)ccc2O1`, for which the GI50 with EKVX NSCLC is 1.24 µM; in the test on K-562 leukemia, 3.64 µM; in the test with SN12C renal, 0.815 µM; in the test with OVCAR-5 ovarian it was 0.385 µM; with RXF 393 renal, 0.282 µM; with SK-MEL-28 melanoma, 18.5 µM. Also, the GI50 was 2.43 µM with NCI-H522 lung, 0.495 µM in the test with 786-0 renal, 1.93 µM in the test on NCI-H23 lung and 8.63 µM in the test on NCI/ADR-RES ovarian. Also, the TGI with EKVX NSCLC is over 75.4 µM; with K-562 leukemia, over 100 µM; with SN12C renal, 12.8 µM; in the test with OVCAR-5 ovarian it was 9.56 µM; in the test with RXF 393 renal, 1.26 µM; with SK-MEL-28 melanoma, over 100 µM. Besides, the TGI worked out at 24.4 µM in the test on NCI-H522 lung, 2.11 µM with 786-0 renal, 53.1 µM in the test on NCI-H23 lung and 47.4 µM in the test on NCI/ADR-RES ovarian.
In the case of `C=C1C(=O)O[C@H]2[C@H]1CC/C(COC(=O)OC/C1=C/CC[C@@]3(C)O[C@H]3[C@H]3OC(=O)[C@@H](CN(C)C)[C@@H]3CC1)=C\CC[C@@]1(C)O[C@@H]21`, the GI50 in the test with EKVX NSCLC is 2.17 µM; in the test with SN12C renal, 2.79 µM; in the test on OVCAR-5 ovarian it was 2.13 µM; in the test on RXF 393 renal, 0.306 µM; in the test with SK-MEL-28 melanoma, 1.57 µM; in the test on NCI-H522 lung, 0.214 µM. Also, the GI50 is 1.31 µM in the test with 786-0 renal, 2.86 µM in the test with NCI-H23 lung and 12.8 µM in the test with NCI/ADR-RES ovarian. Moreover, the TGI with EKVX NSCLC turned out to be 9.39 µM; with SN12C renal it was 10.2 µM; in the test on OVCAR-5 ovarian, 5.21 µM; with RXF 393 renal, 1.35 µM; with SK-MEL-28 melanoma, 4.23 µM; in the test on NCI-H522 lung, 0.513 µM. Besides, the TGI in the test on 786-0 renal turned out to be 2.79 µM; in the test with NCI-H23 lung it was 10.2 µM; in the test with NCI/ADR-RES ovarian it was 29.7 µM.
Take `COc1ccc(NC(=O)c2sc3nc(C)c(C(=O)/C=C/c4cccc(OC)c4)cc3c2N)cc1`: the GI50 with EKVX NSCLC was 5.7 µM; in the test with K-562 leukemia it was 1.43 µM; with SN12C renal, 1.43 µM; in the test on OVCAR-5 ovarian, 1.62 µM; in the test with RXF 393 renal, 0.916 µM; with NCI-H522 lung, 1.38 µM. For the same compound, the GI50 in the test with 786-0 renal was 0.856 µM; in the test on NCI-H23 lung it was 2.35 µM; in the test on NCI/ADR-RES ovarian, 1.59 µM. Besides, the TGI in the test on EKVX NSCLC was 32.5 µM; with K-562 leukemia, over 50 µM; in the test with SN12C renal, 4.47 µM; with OVCAR-5 ovarian, 9 µM; in the test on RXF 393 renal it was 1.84 µM; with NCI-H522 lung, 5.41 µM. Also, the TGI with 786-0 renal is 1.85 µM; with NCI-H23 lung it was 18.6 µM; in the test on NCI/ADR-RES ovarian, over 50 µM.
